What was measured:
plasma cholesterol = assay: Plasma cholesterol lowering activity in cholesterol fed rat; format: in vivo, rat (7-week old, male Sarague Dawley rats); settings: diet containing 0.0005% of test compound for 4 days; mean ± standard deviation; control 240 ± 85; *p < 0.05 (t test vs control group); Dose (mg/kg/day): 23 0.40 ± 0.03, 30 0.45 ± 0.02, 32 0.43 ± 0.04
Experimental: 2. Plasma cholesterol lowering activity in cholesterol fed rat.
1% Cholesterol diet (containing 0.5% of cholic acid and 5% of olive oil) was fed to 7-week old, male Sarague Dawley rats for 3 days. The rats were grouped by the plasma cholesterol level, and fed by the same diet containing 0.0005% of a test compound for 4 days. Blood was collected from rats during 8:30-10:00 am at the fed state, and the plasma cholesterol level was measured enzymatically. The amount of a test compound consumed by rats was calculated on the basis of the amount of the diet consumed by the rats.

[1] = molecular target: T1, Acyl-CoA : cholesterol acyltransferase (ACAT) (Rattus norvegicus, UniProt Q7TQM4); assay: Acyl-CoA : cholesterol acyltransferase (ACAT) inhibitory activity: production of labeled cholesterol ester from [1-^14 C] oleoyl-CoA and endogenous cholesterol; format: biochemical; settings: read-out: ACAT Inhibition Rate; for inhibition at 1 µM: 10^-6 M test compound; for inhibition at 0.01 µM: 10^-8 M test compound
T1 construct: from the mucosal microsome fraction of the small intestine of male, 6-week old Sprague-Dawley rats; from tissue; host or cells: mucosal microsome fraction of the small intestine of male 6-week old Sprague-Dawley rats, fasted for 20 hours
T1 sequence (Q7TQM4 1-524): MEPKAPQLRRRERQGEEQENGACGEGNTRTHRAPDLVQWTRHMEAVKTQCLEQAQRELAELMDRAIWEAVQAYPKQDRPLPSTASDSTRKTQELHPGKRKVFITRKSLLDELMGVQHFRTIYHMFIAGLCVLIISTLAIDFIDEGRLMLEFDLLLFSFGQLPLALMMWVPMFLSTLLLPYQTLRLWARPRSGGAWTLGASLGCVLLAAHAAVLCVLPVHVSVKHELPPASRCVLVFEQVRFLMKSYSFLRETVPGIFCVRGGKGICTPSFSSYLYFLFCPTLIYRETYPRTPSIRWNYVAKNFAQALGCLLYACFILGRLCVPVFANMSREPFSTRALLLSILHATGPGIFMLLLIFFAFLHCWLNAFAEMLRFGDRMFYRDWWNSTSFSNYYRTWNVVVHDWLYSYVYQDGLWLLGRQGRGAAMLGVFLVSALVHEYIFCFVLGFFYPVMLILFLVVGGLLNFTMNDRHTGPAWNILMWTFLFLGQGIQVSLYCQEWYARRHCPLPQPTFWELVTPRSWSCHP
Experimental: 1. Acyl-CoA : cholesterol acyltransferase (ACAT) inhibitory activity.
The enzyme ACAT was prepared by the method of Heider et al. described in Journal of Lipid Research, Vol. 24, page 1127 (1982), from the mucosal microsome fraction of the small intestine of male, 6-week old Sprague-Dawley rats which had been fasted for 20 hours.
ACAT activity was calculated by the method of Helgerud et al. described in Journal of Lipid Research, Vol. 22, page 271 (1981), namely, by measuring the amount of the labeled cholesterol ester produced from [1-^14 C] oleoyl-CoA and endogenous cholesterol.
Inhibition rates (%) of the production of the labeled cholesterol ester wherein 10^-6 M-10^-8 M of test compounds were added are shown as an index of ACAT inhibitory activity in Table 1.

Compound	inhibition at 1 µM [1]	other results
O=C(Nc1ccc(F)cc1F)Nc1cnc2ccc(Br)cc2c1-c1ccccc1 [Example 11, 6-Bromo-3-[3-(2,4-difluorophenyl)ureido]-4-phenylquinoline]	85.5%	–
COc1ccc(-c2c(NC(=O)Nc3ccc(F)cc3F)cnc3ccc(Cl)cc23)c(O)c1OC [Example 69, 6-Chloro-3-[3-(2,4-difluorophenyl)ureido]-4-(2-hydroxy-3,4-dimethoxyphenyl)quinoline]	78.2%	–
O=C(Nc1ccc(F)cc1F)Nc1cnc2ccc(Cl)cc2c1-c1ccccc1Cl [Example 23, 6-Chloro-4-(2-chlorophenyl)-3-[3-(2,4-difluorophenyl)ureido]quinoline]	98%	Plasma Cholesterol (plasma cholesterol): 126 ± 33 mg/dL; inhibition at 0.1 µM ([1]; 10^-7 M test compound): 94.1%; inhibition at 0.01 µM [1]: 34.3%
Cc1cc(C)c2ncc(NC(=O)Nc3cc(C(C)C)c(O)c(C(C)C)c3)c(-c3ccccc3Cl)c2c1 [Example 79, 4-(2-chlorophenyl)-3-[3-(4-hydroxy-3,5-diisopropylphenyl)ureido]-6,8-dimethylquinoline]	79.9%	–
O=C(Nc1ccc(F)cc1F)Nc1cnc2ccc(Cl)cc2c1-c1ccc(O)c(O)c1 [Example 75, 6-chloro-3-[3-(2,4-difluorophenylureido]-4-(3,4-dihydroxyphenyl)quinoline.1/2hydrate]	61.2%	–
CCc1ccc2ncc(NC(=O)Nc3ccc(F)cc3F)c(-c3ccccc3)c2c1 [Example 14, 3-[3-(2,4-Difluorophenyl)ureido]-6-ethyl-4-phenylquinoline]	90.1%	–
CSc1ccccc1-c1c(NC(=O)Nc2ccc(F)cc2F)cnc2ccc(C)cc12 [Example 59, 3-[3-(2,4-Difluorophenyl)ureido]-6-mehtyl-4-(2-mehtylthiophenyl)quinoline]	97.5%	–
CC(=O)Oc1c(C)cc(NC(=O)Nc2cnc3c(C)cc(C)cc3c2-c2ccccc2Cl)cc1C [Example 77, 3-[3-(4-Acetoxy-3,5-dimethylphenyl)ureido]-4-(2-chlorophenyl)-6,8-dimethylquinoline]	96.2%	–
COc1ccc2ncc(NC(=O)Nc3ccc(F)cc3F)c(-c3ccccc3)c2c1 [Example 18, 3-[3-(2,4-Difluorophenyl)ureido]-6-methoxy-4-phenylquinoline]	85.9%	–
COc1ccc(-c2c(NC(=O)Nc3ccc(F)cc3F)cnc3ccc(Cl)cc23)c(OC)c1OC [Example 68, 6-Chloro-3-[3-(2,4-difluorophenyl)ureido]-4-(2,3,4-trimethoxyphenyl)quinoline]	98%	–
Cc1cc2c(-c3ccccc3Cl)c(NC(=O)Nc3ccc(F)cc3F)cnc2c(C)c1C [Example 74, 4-(2-Chlorophenyl)-3-[3-(2,4-difluorophenyl)ureido]-6,7,8-trimethylquinoline]	99.3%	–

Further lines, with some results ahead:

inhibition at 1 µM [1]	Compound	other results
98.9%	Cc1cc(C)c2ncc(NC(=O)Nc3ccc(F)cc3F)c(-c3ccccc3Cl)c2c1 [Example 32, 4-(2-Chlorophenyl)-3-[3-(2,4-difluorophenyl)ureido]-6,8-dimethylquinoline]	Plasma Cholesterol (plasma cholesterol): 119 ± 46 mg/dL; inhibition at 0.01 µM [1]: 52.1%
97.3%	Cc1cc(C)c2ncc(NC(=O)Nc3ccc([N+](=O)[O-])cc3)c(-c3ccccc3Cl)c2c1 [Example 72, 4-(2-Chlorophenyl)-3-[3-(4-nitrophenyl)ureido]-6,8-dimethylquinoline]	–
98.5%	Cc1ccc2ncc(NC(=O)Nc3ccc(F)cc3F)c(-c3ccccc3Cl)c2c1 [Example 30, 4-(2-Chlorophenyl)-3-[3-(2,4-difluorophenyl)ureido]-6-methylquinoline]	Plasma Cholesterol (plasma cholesterol): 143 ± 21 mg/dL
88.3%	O=C(Nc1ccc(F)cc1F)Nc1cnc2ccc(Cl)cc2c1-c1ccccc1 [Example 1, 6-chloro-3-[3-(2,4-difluorophenyl)ureido]-4-phenylquinoline]	–
88.5%	Cc1ccccc1-c1c(NC(=O)Nc2ccc(F)c([N+](=O)[O-])c2)cnc2ccc(Cl)cc12 [Example 58, 6-Chloro-3-[3-(4-fluoro-3-nitrophenyl)ureido]-4-(2-methylphenyl)quinoline]	–
96.9%	Cc1ccc2ncc(NC(=O)Nc3ccc(F)cc3F)c(-c3ccccc3C)c2c1 [Example 31, 3-[3-(2,4-Difluorophenyl)ureido]-6-methyl-4-(2-methylphenyl)quinoline]	–
97.3%	Cc1cc(C)c2ncc(NC(=O)Nc3c(F)cc(F)cc3F)c(-c3ccccc3Cl)c2c1 [Example 62, 4-(2-chlorophenyl)-6,8-dimethyl-3-[3-(2,4,6-trifluorophenyl)ureido]quinoline]	–
97.9%	Cc1cc(C)c2ncc(NC(=O)Nc3c(C)cccc3C)c(-c3ccccc3Cl)c2c1 [Example 70, 4-(2-Chlorophenyl)-6,8-dimethyl-3-[3-(2,6-dimethyl-phenyl)ureido]quinoline]	–
88.5%	O=C(Nc1ccc(F)cc1F)Nc1cnc2ccc(Cl)cc2c1-c1cccc(Cl)c1 [Example 24, 6-Chloro-4-(3-chlorophenyl)-3-[3-(2,4-difluorophenyl)ureido]quinoline]	–
